Source: the supplement of paper PMC7108870

Columns and labels:
HEK293sieSTAT3(Y640F) [1] = experiment: drug sensitivity score (DSS), cytotoxicity CellTox Green (DSS (dimensionless)); higher = more cytotoxic; extreme values may be limits of the assay; settings: 72 h; STAT3 variant: Y640F (constitutively active)
Outline: (§1)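 Each value is one representative of two experiments in which HEK293 cells overexpressing wild-type or mutant STAT3 with a STAT3-dependent luciferase reporter were exposed to compounds at 5 concentrations (10-fold dilutions) for 72 hours at 37°C and 5% CO2. Readouts were CellTox Green fluorescence and then CellTiter-Glo luminescence, normalised to negative and positive control wells. The drug sensitivity score was based on the dose-response curve area and computed in Breeze.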

HEK293sieSTAT3(wt) [2] = experiment: as above; settings: 72 h; STAT3 variant: wild type
Outline: as §1

HEK293sieSTAT3(Y640F) [3] = experiment: drug sensitivity score (DSS), viability CellTiter-Glo (DSS (dimensionless)); higher = more growth inhibition; extreme values may be limits of the assay; settings: 72 h; STAT3 variant: Y640F (constitutively active)
Outline: as §1

HEK293sieSTAT3(wt) [4] = experiment: as above; settings: 72 h; STAT3 variant: wild type
Outline: as §1

SMILES	drug sensitivity score (HEK293sieSTAT3(Y640F) [1])	drug sensitivity score (HEK293sieSTAT3(wt) [2])	drug sensitivity score (HEK293sieSTAT3(Y640F) [3])	drug sensitivity score (HEK293sieSTAT3(wt) [4])
Cc1c(N)nc([C@H](CC(N)=O)NC[C@H](N)C(N)=O)nc1C(=O)N[C@H](C(=O)N[C@H](C)[C@@H](O)[C@H](C)C(=O)N[C@H](C(=O)NCCc1nc(-c2nc(C(=O)NCCC[S+](C)C)cs2)cs1)[C@@H](C)O)[C@@H](OC1OC(CO)C(O)C(O)C1OC1OC(CO)C(O)C(OC(N)=O)C1O)c1cnc[nH]1 (some centres undefined) [Bleomycin] (top concentration tested 10000 nM)	4.25	5.92	20.1	18.8
CC(C)C[C@H](NC(=O)[C@H](Cc1ccccc1)NC(=O)c1cnccn1)B(O)O [Bortezomib] (top concentration tested 1000 nM)	30.6	31.7	29.8	32.5
COc1cc(Nc2c(C#N)cnc3cc(OCCCN4CCN(C)CC4)c(OC)cc23)c(Cl)cc1Cl [Bosutinib] (top concentration tested 10000 nM)	7.59	7.02	7.76	8.54
COc1cc(N2CCC(N3CCN(C)CC3)CC2)ccc1Nc1ncc(Cl)c(Nc2ccccc2P(C)(C)=O)n1 [Brigatinib] (top concentration tested 2500 nM)	0.69	1.71	7.58	8.02
Cc1cc2c(F)c(Oc3ncnn4cc(OC[C@@H](C)O)c(C)c34)ccc2[nH]1 [Brivanib] (top concentration tested 1000 nM)	0	0	0.26	0
CCC/C=C/C=C/C(=O)O[C@H]1/C(=C/C(=O)OC)C[C@H]2C[C@H]([C@@H](C)O)OC(=O)C[C@H](O)C[C@@H]3C[C@H](OC(C)=O)C(C)(C)[C@](O)(C[C@@H]4C/C(=C/C(=O)OC)C[C@H](/C=C/C(C)(C)[C@]1(O)O2)O4)O3 [Bryostatin 1] (top concentration tested 100 nM)	0.65	0.86	0	0.13
Nc1cc(C(F)(F)F)c(-c2cc(N3CCOCC3)nc(N3CCOCC3)n2)cn1 [Buparlisib] (top concentration tested 10000 nM)	0.73	4	10.5	12.3
CS(=O)(=O)OCCCCOS(C)(=O)=O [Busulfan] (top concentration tested 100000 nM)	0	1.26	0.42	4.87
O=C(O)CCCCC(CCSCc1ccccc1)SCc1ccccc1 (centres undefined) [CPI-613] (top concentration tested 10000 nM)	0	0.8	0.32	2.62
C#Cc1cccc(Nc2ncnc3cc(OC)c(OCCCCCCC(=O)NO)cc23)c1 [CUDC-101] (top concentration tested 10000 nM)	7.69	3.02	16.1	9.59
CN(C)c1cc2c(cc1Sc1nc3c(N)nccc3n1CCNCC(C)(C)C)OCO2 [CUDC-305] (top concentration tested 10000 nM)	7.26	17.6	20	24.6
COc1ccc(-c2nc(N3CCOCC3)c3sc(CN(C)c4ncc(C(=O)NO)cn4)cc3n2)cn1 [CUDC-907] (top concentration tested 10000 nM)	19.1	30.6	36.8	37.1
Cc1nc(N)sc1-c1ccnc(Nc2ccc(N3CCOCC3)cc2)n1 [CYC-116] (top concentration tested 10000 nM)	0	0.48	8.51	9.72
CO[C@H]1C(=O)[C@]2(C)[C@@H](OC)C[C@H]3OC[C@@]3(OC(C)=O)[C@H]2[C@H](OC(=O)c2ccccc2)[C@]2(O)C[C@H](OC(=O)[C@H](O)[C@@H](NC(=O)OC(C)(C)C)c3ccccc3)C(C)=C1C2(C)C [Cabazitaxel] (top concentration tested 1000 nM)	4.14	16.3	26.2	28.6
COc1cc2nccc(Oc3ccc(NC(=O)C4(C(=O)Nc5ccc(F)cc5)CC4)cc3)c2cc1OC [Cabozantinib] (top concentration tested 1000 nM)	0	0	0.13	1.9
CC[C@@]1(O)C(=O)OCc2c1cc1n(c2=O)Cc2cc3ccccc3nc2-1 [Camptothecin] (top concentration tested 5000 nM)	9.78	15.8	28.5	29.1
C=CC(=O)Nc1cc2c(Nc3ccc(F)c(Cl)c3)ncnc2cc1OCCCN1CCOCC1 [Canertinib] (top concentration tested 10000 nM)	6.41	7.96	6.3	8.37
CCCCCOC(=O)Nc1nc(=O)n([C@@H]2O[C@H](C)[C@@H](O)[C@H]2O)cc1F [Capecitabine] (top concentration tested 10000 nM)	0	0	0	0
O=C(O)C1(C(=O)O)CCC1.[NH2-].[NH2-].[Pt+2] [Carboplatin] (top concentration tested 100000 nM)	1.37	4.89	9.56	10.6
CC(C)C[C@H](NC(=O)[C@H](CCc1ccccc1)NC(=O)CN1CCOCC1)C(=O)N[C@@H](Cc1ccccc1)C(=O)N[C@@H](CC(C)C)C(=O)[C@@]1(C)CO1 [Carfilzomib] (top concentration tested 1000 nM)	26.5	31.9	31.2	32.8
O=NN(CCCl)C(=O)NCCCl [Carmustine] (top concentration tested 10000 nM)	0	0	3.24	1.45
